US11191293B2, “Nutritional composition and infant formula for promoting myelination of the brain” (NESTEC S.A., priority 2015, dated 2021)

Experiments:
[1] = system: brain myelination (myelin water fraction); test: Cross-sectional correlation of infant formula nutrient content with brain myelination (mcDESPOT MRI myelin water fraction); type: in vivo, human; conditions: formula-fed children up to 5 years of age; brain regions named per nutrient
Description: MRI (Magnetic Resonance Imaging): MRI brain scans of infants and children between 0 and 5 years were acquired using a white matter imaging technique. This technique provides a quantitative measure, the Myelin Water Fraction (MWF), which is a surrogate marker of myelin content in the brain. When mapped as a function of time across early childhood, myelination trajectories can be generated.
Infant formula composition: six infant formulas fed to infants participating in a study were analyzed for their composition/level of myelin-relevant nutrients.
Infants included in this study were drawn from a larger longitudinal study of normal brain and behavioral development: the Brown University Assessment of Myelination and Behavior Across Maturation (BAMBAM). To focus on neurotypical development, children with known potential risk factors for learning, neurologic, or psychiatric disorders were specifically excluded during recruitment and enrollment. Thus, children with in utero alcohol or illicit substance exposure, premature (<37 weeks gestation) or multiple birth, fetal ultrasound abnormalities, complicated pregnancy (e.g., preeclampsia), APGAR scores <8, NICU admission, neurological disorder (e.g., head injury, epilepsy), psychiatric or developmental disorders in the infant, parents or siblings (including maternal depression requiring medication) were excluded. Ongoing screenings, such as the MCAT for autism, or CBCL for behavioral problems, were further used to remove enrolled children with clinically concerning behaviors or overt medical conditions (such as autism spectrum disorders).
A combination of retrospective and prospective data were acquired from parents via detailed medical histories and parental interview on the type of infant formula used, percentage of breastfeeding to formula feeding, and length of exclusive breastfeeding. This information was updated at each study visit, which occurred approximately every 6 months for children under 2 years, and yearly for older children. Using this information, children were categorized into one of 2 groups: #1. Exclusively formula-fed; and #2. Exclusively breastfed for at least 90 days (3 months). Children who were fed a combination of breastmilk and formula within 3 months were excluded from our analysis. Infants within the exclusively formula-fed group were further sub-divided based on parental reports of the main infant formula used throughout the first 3 months. Main formula was defined as that given 90% of the time or more (in the case were parents used an alternate brand during vacation, for example).
Using these criteria, 94 exclusively formula-fed infants and young children were selected into group #1. These included 13 children who received formula #2; 28 who received formula #5; 8 who received formula #3; 39 who received formula #4; 5 who received formula #1 and 1 who received formula #6. A sample of 52 exclusively breast-fed infants were also selected and matched to the over formula-fed group with regards to mean age, gestation duration, birth weight, male:female ratio, ethnicity ratio, maternal education, family size, and number of languages spoken in the home (in addition to English).
Each infant was scanned using the mcDESPOT (multicomponent Driven Equilibrium Single Pulse Observation of T1 and T2) white matter imaging technique Deoni et al. (Magn. Reson. Med. 2008, 60:1372-1387), which provides a quantitative measure of the myelin water fraction (MWF)—a measure of myelin content—at each point throughout the brain. All infants were scanned during natural (i.e. non-sedated) sleep using acoustically-muffled mcDESPOT imaging protocols. Total imaging times ranged from 19 minutes for the youngest toddlers to 24 minutes for the older 4 year-old children.

[2] = system: neural progenitor cell (NPCs); test: Differentiation assay: quantification of neuronal and glial marker expression in monolayer NPC culture; type: cell-based, mouse; parameters: key: marker integrated density normalized to DAPI integrated density; conditions: 9 d culture; for astrocyte cell density: GFAP normalized to DAPI
Description: Generation of neural progenitor cell (NPCs) libraries: dissociation of E14 mouse neocortex E14 pup brains were harvested and placed in ice cold DPBS(1X)+10% Pen/Strep, then they were dissected using a dissecting microscope. From each pup, one brain hemisphere was placed in 2 ml of Neurobasal media/10% P/S/10X Hepes and another brain hemisphere was placed in another tube. The tissue from each tube was aseptically and manually dissociate into single cells, neurobasal complete medium was added and centrifuged at […] for 5 min. The tissue was then re-suspended in neurobasal complete media with GF and placed in a corning suspension culture dish 100 mm×20 mm (#430591). […] 24 well glass bottom plates (Mat Tek […]-1.0-13-F Case, glass bottom 24 well plates) were coated with poly-L-ornithin (Sigma P4957) and Fibronection (Sigma F1141) before use in the assay below. Cells were plated (10,000 cells per well) in Complete media with GF for 24 hours (500 ul per well). […] After 24 hours, it was ensured that cells were attached to the plate, then the medium was carefully removed. […] Note: medium contains no GF. […] The cells were culture for 9 d in media plus 2% Nu Serum, the medium was changed every 2 nd day. For fixation and subsequent immunohistochemical analysis the medium was removed, the cells were rinsed once with 1X PBS for 5 min, and fixed with 4% PFA in 1X PBS for 15 min at 4° C. The cells were then washed twice with 1X PBS for 5 min, left in 1X PBS, wrapped in foil and left overnight at 4C, or they were immediately primary antibody staining was carried out. PBS was removed and enough AB staining solution (1% Goat serum, 1xPBS, and 0.1% triton X) was added to cover the bottom, the block was kept at room temp for 1 hour. Primary antibody dilutions were made in appropriate amount of AB staining solution, 250 ul per well (the antibodies were only kept out on ice for a short time, mouse anti-MAP2 or TUJ1 1:500 (neuron marker), rabbit anti-GFAP(glial marker) 1:1000, chicken anti-Nestin CFP (EGFP antibody (progenitor cell marker)) 1:1000. AB staining solution was removed and a solution of primary antibodies was added to each chamber. The cells were wrapped in foil and kept overnight 4'C. The cells were then washed with 400 ul of AB staining solution for 5 min once to remove primary antibodies. Secondary antibody solutions were made (enough for 250 ul of each chamber) (Goat anti-mouse alexa 488 1:2000, anti-rabbit Cy3 (1:500), anti-chicken alexa 647 1:500, and 1:5000 Dapi). The cells were incubated at room temp for 1 hour in the dark and washed 2 time in AB staining solution for five mins. They were then kept at 4° C. or Imaged using a GE Cytell imager or LSM 710, Zeiss confocal microscope and analyze with ImageJ software(National Institutes of Health). Each marker expression was measured on collected images (integrated density measure in ImageJ) and normalized to DAPI fluorescence, marking all nuclei (integrated density measure). Octanoic Acid were labeled with neuronal beta-tubulin III (TuJ1), subsequent compounds were labeled with Microtubule-associated protein 2 (MAP2).

In the case of phosphatidylinositol, the “association of nutrient content of infant formula with myelination (myelin water fraction) over time in the brain” value [1] is reported as “an association with myelination (myelin water fraction) was observed”.

With `CCCCCCCC/C=C\CCCCCCCCCCCCCC(=O)O` [Nervonic acid, Nervonic Acid] the astrocyte cell density ([2]; Nervonic acid high dose (Dose 3, 1 μm)) was 0.7028, the “Neuronal Cell density” value ([2]; Nervonic acid high dose (Dose 3, 1 μm), MAP2 normalized to DAPI) was 0.5394 and the astrocyte cell density ([2]; Nervonic acid low dose (Dose 1, 10 nM)) was 0.6218. The “Neuronal Cell density” value ([2]; Nervonic acid low dose (Dose 1, 10 nM), MAP2 normalized to DAPI) was 0.4676, the astrocyte cell density ([2]; Nervonic acid med dose (Dose 2, 100 nM)) was 0.7215 and the “Neuronal Cell density” value ([2]; Nervonic acid med dose (Dose 2, 100 nM), MAP2 normalized to DAPI) was 0.5656.

With `[Ca+2]` [calcium] the “association of nutrient content of infant formula with myelination (myelin water fraction) over time in the brain” value [1] was “an association with myelination (myelin water fraction) was observed”.

`[P]` [phosphorus] was tested, and the “association of nutrient content of infant formula with myelination (myelin water fraction) over time in the brain” value [1] was “an association with myelination (myelin water fraction) was observed”.

For vitamin B12, the “association of nutrient content of infant formula with myelination (myelin water fraction) over time in the brain” value [1] was “an association with myelination (myelin water fraction) was observed”.

With `CCCCC/C=C\C/C=C\C/C=C\C/C=C\CCCC(=O)O` [AA, arachidonic acid] the “association of nutrient content of infant formula with myelination (myelin water fraction) over time in the brain” value [1] was “an association with myelination (myelin water fraction) was observed”.

For `[Mg+2]` [magnesium], the “association of nutrient content of infant formula with myelination (myelin water fraction) over time in the brain” value [1] was “an association with myelination (myelin water fraction) was observed”.

In the case of iron, the “association of nutrient content of infant formula with myelination (myelin water fraction) over time in the brain” value [1] is reported as “an association with myelination (myelin water fraction) was observed”.

In the case of `CCCCCCCC(=O)O` [Octanoic acid, Octanoic Acid], the astrocyte cell density ([2]; Octanoic acid high dose (Dose 3, 250 μM)) is reported as 7.9, the “Neuronal Cell density” value ([2]; Octanoic acid high dose (Dose 3, 250 μM), TuJ1 normalized to DAPI) is reported as 1.7 and the astrocyte cell density ([2]; Octanoic acid low dose (Dose 1, 10 μM)) is reported as 3.7. The “Neuronal Cell density” value ([2]; Octanoic acid low dose (Dose 1, 10 μM), TuJ1 normalized to DAPI) was 1.2, the astrocyte cell density ([2]; Octanoic acid med dose (Dose 2, 50 μM)) was 6.1 and the “Neuronal Cell density” value ([2]; Octanoic acid med dose (Dose 2, 50 μM), TuJ1 normalized to DAPI) was 1.8.

For phosphatidylcholine, the “association of nutrient content of infant formula with myelination (myelin water fraction) over time in the brain” value [1] was “an association with myelination (myelin water fraction) was observed”.

`CCCCCCCCCCCCCCCCCC(=O)O` [Stearic acid, Stearic Acid] was tested, and the astrocyte cell density ([2]; Stearic acid high dose (Dose 3, 10 μM)) was 0.85, the “Neuronal Cell density” value ([2]; Stearic acid high dose (Dose 3, 10 μM), MAP2 normalized to DAPI) was 0.64 and the astrocyte cell density ([2]; Stearic acid low dose (Dose 1, 100 nM)) was 0.68. The “Neuronal Cell density” value ([2]; Stearic acid low dose (Dose 1, 100 nM), MAP2 normalized to DAPI) was 0.54, the astrocyte cell density ([2]; Stearic acid med dose (Dose 2, 1 μm)) was 0.81 and the “Neuronal Cell density” value ([2]; Stearic acid med dose (Dose 2, 1 μm), MAP2 normalized to DAPI) was 0.66.

With `[Zn]` [zinc] the “association of nutrient content of infant formula with myelination (myelin water fraction) over time in the brain” value [1] was “an association with myelination (myelin water fraction) was observed”.
